In US12390437B2, “Itaconic acid derivatives and uses thereof intreating an inflammatory disease or a disease associated with an undesirable immune response” (Sitryx Therapeutics Limited, priority 2019, dated 2025):

Each molecule was assayed on IL-6 cytokine output from THP-1s (assay: THP-1 AlphaLISA IL-6 cytokine assay). Conditions: Homo sapiens; PMA-differentiated THP-1 cells, LPS 24 hr then Nigericin 1 hour.
Assay type: cell-based, human
Method: Measuring Inhibitory Effects on IL-1β and IL-6 Cytokine Output from THP-1s
The cytokine inhibition profiles of compounds of formula (IW-1) were determined in a differentiated THP-1 cell assay. All assays were performed in RPMI-1640 growth medium (Gibco), supplemented with 10% fetal bovine serum (FBS; Gibco), 1% penicillin-streptomycin and 1% sodium pyruvate unless specified otherwise. The IL-1β and IL-6 cytokine inhibition assays were each run in a background of differentiated THP-1 cells as described below. All reagents described were from Sigma-Aldrich unless specified otherwise. Compounds were prepared as 10 mM DMSO stocks.
THP-1 cells were expanded as a suspension up to 80% confluence in appropriate growth medium. Cells were harvested, suspended, and treated with an appropriate concentration of phorbol 12-myristate 13-acetate (PMA) over a 72 hr period (37° C./5% CO2).
Following 72 hrs of THP-1 cell incubation, cellular medium was removed and replaced with fresh growth media containing 1% of FBS. Working concentrations of compounds were prepared separately in 10% FBS treated growth medium and pre-incubated with the cells for 30 minutes (37° C./5% CO2). Following the 30 minute compound pre-incubation, THP-1s were treated with an appropriate concentration of LPS and the THP-1s were subsequently incubated for a 24 hr period (37° C./5% CO2). An appropriate final concentration of Nigericin was then dispensed into the THP-1 plates and incubated for 1 hour (37° C./5% CO2) before THP-1 supernatants were harvested and collected in separate polypropylene 96-well holding plates.
Reagents from each of the IL-1β and IL-6 commercial kits (Perkin Elmer) were prepared and run according to the manufacturer's instructions. Subsequently, fluorescence signal detection in a microplate reader was measured (EnVision® Multilabel Reader, Perkin Elmer).
Percentage inhibition was calculated per cytokine by normalising the sample data to the high and low controls used within each plate (+/−LPS respectively). Percentage inhibition was then plotted against compound concentration and the 50% inhibitory concentration (IC50) was determined from the resultant concentration-response curve.

Row | Structure (SMILES) | IC50 [µM]
1 | C=C(CC(=O)O[C@H](C)CCCCCC)C(=O)OCCS(C)(=O)=O [Example 55, (R)-1-(2-(methylsulfonyl)ethyl) 4-(octan-2-yl) 2-methylenesuccinate] | 3.8
2 | C=C(CC(=O)O[C@H](C)CCCCCC)C(=O)OC1CN(C(C)=O)C1 [Example 58, (R)-1-(1-acetylazetidin-3-yl) 4-(octan-2-yl) 2-methylenesuccinate] | 3.8
3 | C=C(CC(=O)OC1CCCCC1)C(=O)OC(C)CS(C)(=O)=O (stereo not drawn) [Example 59, 4-cyclohexyl 1-(1-(methylsulfonyl)propan-2-yl) 2-methylenesuccinate] | 8.8
4 | C=C(CC(=O)OC1CCCCC1)C(=O)OCCS(C)(=O)=O [Example 61, 4-cyclohexyl 1-(2-(methylsulfonyl)ethyl) 2-methylenesuccinate] | 5
5 | C=C(CC(=O)OC1CCCCC1)C(=O)OC1CCOCC1 [Example 64, 4-cyclohexyl 1-(tetrahydro-2H-pyran-4-yl) 2-methylenesuccinate] | 12.6
6 | C=C(CC(=O)OC1CCCCC1)C(=O)OCCN1CCCC1=O [Example 65, 4-cyclohexyl 1-(2-(2-oxopyrrolidin-1-yl)ethyl) 2-methylenesuccinate] | 22.4
7 | C=C(CC(=O)O[C@@H](C)CCCCCC)C(=O)OC1CS(=O)(=O)C1 [Example 67, (S)-1-(1,1-dioxidothietan-3-yl) 4-(octan-2-yl) 2-methylenesuccinate] | 4.8
8 | C=C(CC(=O)OCCCCCCCC)C(=O)OC1(C)COC1 [Example 68, 1-(3-methyloxetan-3-yl) 4-octyl 2-methylenesuccinate] | 9.1
9 | C=C(CC(=O)OC1CCCCCCC1)C(=O)OC1CCOCC1 [Example 70, 4-cyclooctyl 1-(tetrahydro-2H-pyran-4-yl) 2-methylenesuccinate] | 9.4
10 | C=C(CC(=O)OC1CCCCCCC1)C(=O)OCCN1CCCC1=O [Example 71, 4-cyclooctyl 1-(2-(2-oxopyrrolidin-1-yl)ethyl) 2-methylenesuccinate] | 9.6
11 | C=C(CC(=O)O[C@H](C)CCCCCC)C(=O)OCCN1CCCC1=O [Example 72, (R)-4-(octan-2-yl) 1-(2-(2-oxopyrrolidin-1-yl)ethyl) 2-methylenesuccinate] | 8.2
12 | C=C(CC(=O)O[C@H](C)CCCCCC)C(=O)OC1CCOCC1 [Example 73, (R)-4-(octan-2-yl) 1-(tetrahydro-2H-pyran-4-yl) 2-methylenesuccinate] | 23.5

Molecules with a lower IC50, results first:

Row | IC50 [µM] | Structure (SMILES)
13 | 3.5 | C=C(CC(=O)O[C@H](C)CCCCCC)C(=O)OC(C)CS(C)(=O)=O (stereo partly drawn) [Example 56, 1-(1-(methylsulfonyl)propan-2-yl) 4-((R)-octan-2-yl) 2-methylenesuccinate]
14 | 2.6 | C=C(CC(=O)O[C@H](C)CCCCCC)C(=O)OC1CS(=O)(=O)C1 [Example 57, (R)-1-(1,1-dioxidothietan-3-yl) 4-(octan-2-yl) 2-methylenesuccinate]
15 | 1.4 | C=C(CC(=O)OC1CCCCC1)C(=O)OC1CS(=O)(=O)C1 [Example 60, 4-cyclohexyl 1-(1,1-dioxidothietan-3-yl) 2-methylenesuccinate]
16 | 2.8 | C=C(CC(=O)OC1CCCCCCC1)C(=O)OC(C)CS(C)(=O)=O (stereo not drawn) [Example 62, 4-cyclooctyl 1-(1-(methylsulfonyl)propan-2-yl) 2-methylenesuccinate]
17 | 2.5 | C=C(CC(=O)OC1CCCCCCC1)C(=O)OC1CN(C(C)=O)C1 [Example 63, 1-(1-acetylazetidin-3-yl) 4-cyclooctyl 2-methylenesuccinate]
18 | 2.5 | C=C(CC(=O)O[C@@H](C)CCCCCC)C(=O)OC1CN(C(C)=O)C1 [Example 66, (S)-1-(1-acetylazetidin-3-yl) 4-(octan-2-yl) 2-methylenesuccinate]

The molecules below were run on IL-1β cytokine output from THP-1s (assay: THP-1 AlphaLISA IL-1β cytokine assay). Conditions: Homo sapiens, THP-1, PMA-differentiated THP-1 cells, LPS 24 hr then Nigericin 1 hour; read-out: IL-1β (IC50).
Assay type: cell-based, human
How it was run: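 Cells are differentiated with PMA over 72 h, switched to 1% FBS medium and treated with compound for 30 min before LPS stimulation for 24 h. Nigericin is added for a final hour, and secreted cytokine is measured by AlphaLISA, with IC50 fitted from percent inhibition.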

Row | Structure (SMILES) | IC50 [µM]
19 | C=C(CC(=O)O[C@H](C)CCCCCC)C(=O)OCCS(C)(=O)=O [Example 55, (R)-1-(2-(methylsulfonyl)ethyl) 4-(octan-2-yl) 2-methylenesuccinate] | 5.1
20 | C=C(CC(=O)O[C@H](C)CCCCCC)C(=O)OC1CN(C(C)=O)C1 [Example 58, (R)-1-(1-acetylazetidin-3-yl) 4-(octan-2-yl) 2-methylenesuccinate] | 6.5
21 | C=C(CC(=O)OC1CCCCC1)C(=O)OC(C)CS(C)(=O)=O (stereo not drawn) [Example 59, 4-cyclohexyl 1-(1-(methylsulfonyl)propan-2-yl) 2-methylenesuccinate] | 13.3
22 | C=C(CC(=O)OC1CCCCC1)C(=O)OCCS(C)(=O)=O [Example 61, 4-cyclohexyl 1-(2-(methylsulfonyl)ethyl) 2-methylenesuccinate] | 6.1
23 | C=C(CC(=O)OC1CCCCC1)C(=O)OC1CCOCC1 [Example 64, 4-cyclohexyl 1-(tetrahydro-2H-pyran-4-yl) 2-methylenesuccinate] | 10.2
24 | C=C(CC(=O)OC1CCCCC1)C(=O)OCCN1CCCC1=O [Example 65, 4-cyclohexyl 1-(2-(2-oxopyrrolidin-1-yl)ethyl) 2-methylenesuccinate] | 22.6
25 | C=C(CC(=O)O[C@@H](C)CCCCCC)C(=O)OC1CS(=O)(=O)C1 [Example 67, (S)-1-(1,1-dioxidothietan-3-yl) 4-(octan-2-yl) 2-methylenesuccinate] | 5.7
26 | C=C(CC(=O)OCCCCCCCC)C(=O)OC1(C)COC1 [Example 68, 1-(3-methyloxetan-3-yl) 4-octyl 2-methylenesuccinate] | 24
27 | C=C(CC(=O)OC1CCCCCCC1)C(=O)OC1CCOCC1 [Example 70, 4-cyclooctyl 1-(tetrahydro-2H-pyran-4-yl) 2-methylenesuccinate] | 6.1
28 | C=C(CC(=O)OC1CCCCCCC1)C(=O)OCCN1CCCC1=O [Example 71, 4-cyclooctyl 1-(2-(2-oxopyrrolidin-1-yl)ethyl) 2-methylenesuccinate] | 8.7
29 | C=C(CC(=O)O[C@H](C)CCCCCC)C(=O)OCCN1CCCC1=O [Example 72, (R)-4-(octan-2-yl) 1-(2-(2-oxopyrrolidin-1-yl)ethyl) 2-methylenesuccinate] | 11.4
30 | C=C(CC(=O)O[C@H](C)CCCCCC)C(=O)OC1CCOCC1 [Example 73, (R)-4-(octan-2-yl) 1-(tetrahydro-2H-pyran-4-yl) 2-methylenesuccinate] | 24.1

Results, then the molecule that gave them:

Row | IC50 [µM] | Structure (SMILES)
31 | 7.9 | C=C(CC(=O)O[C@H](C)CCCCCC)C(=O)OC(C)CS(C)(=O)=O (stereo partly drawn) [Example 56, 1-(1-(methylsulfonyl)propan-2-yl) 4-((R)-octan-2-yl) 2-methylenesuccinate]
32 | 4.4 | C=C(CC(=O)O[C@H](C)CCCCCC)C(=O)OC1CS(=O)(=O)C1 [Example 57, (R)-1-(1,1-dioxidothietan-3-yl) 4-(octan-2-yl) 2-methylenesuccinate]
33 | 1.9 | C=C(CC(=O)OC1CCCCC1)C(=O)OC1CS(=O)(=O)C1 [Example 60, 4-cyclohexyl 1-(1,1-dioxidothietan-3-yl) 2-methylenesuccinate]
34 | 3.5 | C=C(CC(=O)OC1CCCCCCC1)C(=O)OC(C)CS(C)(=O)=O (stereo not drawn) [Example 62, 4-cyclooctyl 1-(1-(methylsulfonyl)propan-2-yl) 2-methylenesuccinate]
35 | 1.3 | C=C(CC(=O)OC1CCCCCCC1)C(=O)OC1CN(C(C)=O)C1 [Example 63, 1-(1-acetylazetidin-3-yl) 4-cyclooctyl 2-methylenesuccinate]
36 | 2.3 | C=C(CC(=O)O[C@@H](C)CCCCCC)C(=O)OC1CN(C(C)=O)C1 [Example 66, (S)-1-(1-acetylazetidin-3-yl) 4-(octan-2-yl) 2-methylenesuccinate]
